Measured values from PMC2765639 (PLoS Neglected Tropical Diseases, 2009).
Like-named read-outs stand apart in the source and are kept apart here.

Tests used:
[1] = tested on: PC-3; assay: Mammalian cell line specificity assay (alamar blue); format: cell-based, human; details: Homo sapiens
How it was run: (§1)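 Cells exposed to compounds for 44–46 h at 37°C, 5% CO2, in 384-well format; 1% DMSO vehicle, 10% DMSO positive control (final). Growth inhibition read after 2–4 h with alamar blue.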

[2] = tested on: MDA-MB-231; assay: as above; format: cell-based, human; details: Homo sapiens
How it was run: as §1

[3] = tested on: A549; assay: as above; format: cell-based, human; details: Homo sapiens
How it was run: as §1

[4] = tested on: HeLa; assay: as above; format: cell-based, human; details: Homo sapiens, HeLa, read-out: HeLa EC50 (AVE±SD)
How it was run: as §1

[5] = tested on: IMR-90; assay: as above; format: cell-based, human; details: Homo sapiens
How it was run: as §1

[6] = tested on: L. major promastigotes; assay: L. major promastigote drug susceptibility assay (alamar blue, 384-well); format: cell-based, Leishmania major; details: Leishmania major
How it was run: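 Exponential-phase promastigotes (5,000/well) were exposed to compound for 44 h at 28°C with 5% CO2. Single-point screening used 10 µM in 1% DMSO, and duplicate 10-point curves spanned 0.01–5.00 µM.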

[7] = tested on: human cell lines; assay: Human cell line panel (A549, HeLa, IMR-90, PC-3, MDA-MB-231); format: cell-based
Method: Mammalian cells were cultured and maintained according to ATCC specifications (ATCC, Manassas, VA). Cell line drug susceptibility assays were performed in final volumes of 25 µL using our previously described 384-well microtiter plate format,[39]. Briefly, for automated HTS procedures, cells (A549, IMR-90 and, HeLa, 1,000 cells; PC-3, 750 cells and; MDA-MB-231, 3,000 cells) in complete culture medium were seeded into each well of 384-well microtiter plates using a Titertek MAPC-2 bulk dispenser. Test and control compounds were added to individual wells as described above. Vehicle and positive controls were 1% DMSO and 10% DMSO, respectively (final well concentrations). Assay plates were incubated for 44–46 h at 37°C in the presence of 5% CO2 and growth inhibitory effects were determined as described above. Five µL of alamar blue reagent was added to each well and incubated for 2–4 h. Data were captured as described above.

[8] = tested on: L. major axenic amastigote-like population; assay: L. major axenic amastigote-like alamar blue assay (pH 4.9); format: cell-based, Leishmania major; details: Leishmania major
[9] = tested on: L. major promastigotes; assay: Flow cytometer-based growth inhibition and cytotoxicity assay; details: Leishmania major, 48 h, read-out: L. major promastigote EC50 (AVE±SD) Confirmation Flow Cytometry

Row | SMILES | EC50 ([1]; PC-3, read-out: PC-3 EC50 (AVE±SD)) [µM] | EC50 ([2]; MDA-MB-231, read-out: MDA EC50 (AVE±SD)) [µM] | EC50 ([3]; A549, read-out: A549 EC50 (AVE±SD)) [nM] | EC50 ([3]; A549, read-out: EC50 Ave ± SD, A549) [nM] | EC50 [4] [µM] | EC50 ([5]; IMR-90, read-out: IMR90 EC50 (AVE±SD)) [µM] | EC50 ([6]; read-out: EC50 Ave ± SD, Lm) [nM] | growth inhibition of human cell lines tested [7] | EC50 ([8]; 144 h, pH 4.9, read-out: L. major axenic amastigote-like EC50 (AVE±SD) Confirmation Alamar Blue) [nM] | EC50 [9] [nM] | EC50 ([1]; PC-3, 44–46 h, alamar blue, read-out: PC-3 EC50 (AVE±SD)) [µM] | EC50 ([2]; MDA-MB-231, 44–46 h, alamar blue, read-out: MDA EC50 (AVE±SD)) [µM] | EC50 ([3]; A549, 44–46 h, alamar blue, read-out: A549 EC50 (AVE±SD)) [nM] | EC50 ([3]; A549, Table S1, PMLSC library samples, read-out: EC50 Ave ± SD, A549) [nM] | EC50 ([4]; 44–46 h, alamar blue) [µM] | EC50 ([5]; IMR-90, 44–46 h, alamar blue, read-out: IMR90 EC50 (AVE±SD)) [µM] | EC50 ([6]; 48 h, compounds from commercial supplier, 44 h + 4 h alamar blue, 28°C, read-out: L. major promastigote EC50 (AVE±SD) Confirmation Alamar Blue) [nM] | EC50 ([6]; Table S1, PMLSC library samples, 10-point 0.01–5.00 µM, read-out: EC50 Ave ± SD, Lm) [nM] | EC50 ([8]; pH 4.9, 144 h, 32°C, read-out: L. major axenic amastigote-like EC50 (AVE±SD) Confirmation Alamar Blue) [nM]
1 | NC(=O)c1cn([C@@H]2O[C@H](CO)[C@@H](O)[C@H]2O)c2ncnc(N)c12 [Sangivamycin, reference compound] | > 50 | > 50 | 70 ± 20 | 72 ± 5 | > 50 | > 50 | 164 ± 11 | inhibited the growth of human cell lines tested | 4300 ± 300 | 140 ± 20 |  |  |  |  |  |  |  |  | 
2 | N[C@H](C(=O)O)[C@@H]1CC(Cl)=NO1 [Acivicin, reference compound] |  |  |  |  |  |  |  | inhibited the growth of human cell lines tested |  | 40 ± 10 | > 50 | > 50 | 4400 ± 400 | > 5000 | 3.9 ± 3 | 6.7 ± 0.4 | 6 ± 1 | 177 ± 3 | 1100 ± 60
